Reference: publication PMC7897990, “TriTOX: A novel Trichomonas vaginalis assay platform for high-throughput screening of compound libraries” (International Journal for Parasitology: Drugs and Drug …, 2021)
Like-named read-outs stand apart in the source and are kept apart here.

What was measured:
[1] = test system: Trichomonas vaginalis G3 trophozoites
[2] = test system: nontumorigenic neonatal foreskin fibroblast (NFF) cell line
[3] = HTS replicate 1, parasite screen 1 µg/mL
[4] = HTS replicate 2, parasite screen 1 µg/mL
[5] = NFF fibroblasts, single concentration 5 µg/mL

| SMILES | T.vaginalis_%inb_Rep1 [1, 3] [%] | T.vaginalis_%inb_Rep2 [1, 4] [%] | NFF_Activity [2, 5] | also measured |
| --- | --- | --- | --- | --- |
| CNC[C@@H]1CC[C@@H](N)[C@@H](O[C@H]2[C@H](O)[C@@H](O[C@H]3OC[C@](C)(O)[C@H](NC)[C@H]3O)[C@H](N)C[C@@H]2N)O1 [Gentamicin C2b] |  |  |  | T.vaginalis_%inb_Rep1 ([1]; HTS, parasite screen at 1 µg/mL, replicate 1): 11.00%; T.vaginalis_Absorbance_Rep1 ([1]; HTS, parasite screen at 1 µg/mL, replicate 1, raw absorbance): 0.919; T.vaginalis_%inb_Rep2 ([1]; HTS, parasite screen at 1 µg/mL, replicate 2): 5.20%; T.vaginalis_Absorbance_Rep2 ([1]; HTS, parasite screen at 1 µg/mL, replicate 2, raw absorbance): 0.716; NFF_Activity ([2]; NFF_NS1 screen at 5 µg/mL): I (otherwise these were reported as inactive (I)) |
| O=c1cc(O)c1=O [Moniliformin] | 8.57 | 12.25 | I (otherwise these were reported as inactive (I)) |  |
| COc1ccc2c(c1OC)C(=O)O[C@@H]2[C@H]1c2c(cc3c(c2OC)OCO3)CCN1C [Narcotine] | 11.80 | 11.76 | I (otherwise these were reported as inactive (I)) |  |
| CC1=C[C@H]2C(=O)O[C@H]3C[C@@H](C/C=C(\C)C[C@@H](C)/C=C/C=C4\CO[C@H]([C@@H]1O)[C@@]42O)O[C@]1(C3)C[C@H](O)[C@H](C)[C@@H](/C(C)=C/C(C)C)O1 [Nemadectin] | 11.56 | 13.53 | I (otherwise these were reported as inactive (I)) |  |
| COc1oc(C2C/C(=C/C(C)=C/C(C)=C/C(C)=C/c3ccc([N+](=O)[O-])cc3)CO2)c(C)c(=O)c1C (centres unmarked) [Neoaureothin] | 14.76 | 12.19 | I (otherwise these were reported as inactive (I)) |  |
| CC(=O)OC[C@]12C[C@H](O)C(C)=C[C@H]1O[C@@H]1[C@H](O)[C@@H](OC(C)=O)[C@@]2(C)[C@]12CO2 [Neosolaniol] |  |  |  | T.vaginalis_%inb_Rep1 [1]: 8.23%; T.vaginalis_%inb_Rep2 [1]: 6.22%; NFF_Activity [2]: I (key: active (A) compounds having >25% inhibitory activity; otherwise these were reported as inactive (I)) |
| O=C(O)CC[N+](=O)[O-] [Nitropropionic acid, 3-] | 18.00 | 11.87 | I (otherwise these were reported as inactive (I)) |  |
| CO[C@@H]1C[C@H]2C=C[C@H]3[C@H]4O[C@]2(/C(C)=C\[C@@H](C)[C@@H]([C@@H](C)O)OC1=O)[C@@H]3[C@H](O)[C@@H](C)[C@H]4O [Nodusmicin] | 11.16 | 10.52 | I (otherwise these were reported as inactive (I)) |  |
| C[C@@H]1Cc2ccc(C(=O)N[C@@H](Cc3ccccc3)C(=O)O)c(O)c2C(=O)O1 [Ochratoxin B] | 13.18 | 9.36 | I (otherwise these were reported as inactive (I)) |  |
| CCOC(=O)[C@H](Cc1ccccc1)NC(=O)c1cc(Cl)c2c(c1O)C(=O)O[C@H](C)C2 [Ochratoxin C] | 15.37 | 4.81 | I (otherwise these were reported as inactive (I)) |  |
| CCCCCCCCCCCCCCCCCC(=O)N[C@H]1CCOC1=O [Octadecanoyl-L-homoserine lactone] | 12.02 | 13.47 | I (otherwise these were reported as inactive (I)) |  |
| CCCCCCCC(=O)N[C@H]1CCOC1=O [Octanoyl-L-homoserine lactone] | 16.84 | 14.05 | I (otherwise these were reported as inactive (I)) |  |
| CC[C@H]1/C=C/C=C/C[C@@H](C)[C@H](O)[C@@](C)(O)C(=O)[C@@H](C)[C@H](O)[C@@H](C)C(=O)[C@@H](C)[C@H](O)[C@@H](C)/C=C/C(=O)O[C@@H]2[C@H](C)[C@H](CC1)O[C@@]1(O[C@@H](C[C@@H](C)O)[C@@H](C)CC1=O)[C@H]2C [Oligomycin B] | 12.98 | 13.09 | I (otherwise these were reported as inactive (I)) |  |
| CC[C@H]1/C=C/C=C/C[C@@H](C)[C@H](O)[C@@](C)(O)C(=O)[C@@H](C)[C@H](O)[C@@H](C)C(=O)[C@@H](C)[C@H](O)[C@@H](C)/C=C/C(=O)O[C@H]2C[C@@]3(CC[C@H](C)[C@H](C[C@@H](C)O)O3)O[C@@H](CC1)[C@H]2C [Oligomycin D] | 14.35 | 12.89 |  | NFF_Activity [2]: I (key: active (A) compounds having >25% inhibitory activity; otherwise these were reported as inactive (I)) |
| CC[C@H]1/C=C/C=C/C[C@@H](C)[C@H](O)[C@@](C)(O)C(=O)[C@@H](C)[C@H](O)[C@@H](C)C(=O)[C@@H](C)[C@H](O)[C@@H](C)/C=C/C(=O)O[C@@H]2[C@H](C)[C@H](CC1)O[C@@]1(O[C@@H](C[C@@H](C)O)[C@@H](C)CC1=O)[C@]2(C)O [Oligomycin E] | 14.66 | 15.07 |  | NFF_Activity [2]: I (key: active (A) compounds having >25% inhibitory activity; otherwise these were reported as inactive (I)) |
| CC(C)=CCC[C@H](C)[C@@]1(O)CC[C@]2(C)C[C@H]3[C@H](C(=O)C[C@@]3(C)O)/C(C=O)=C\C[C@H]21 [Ophiobolin B] | 11.82 | 13.09 | A (active (A) compounds having >25% inhibitory activity) |  |
| COc1cc(C)c(C(=O)O)c(OC)c1 [Orsellinic acid dimethylether] | 12.73 | 13.02 | I (otherwise these were reported as inactive (I)) |  |
| CC=CC=CC1OC(O)(C(C)C(O)C(C)C2OC(=O)C(OC)=CC(C)=CC(C)C(O)C(C)CC(C)=CC=CC2OC)CC(OC2CC(O)C(O)C(C)O2)C1C (centres unmarked) [PC-766B] | 72.87 | 76.65 | A (active (A) compounds having >25% inhibitory activity) |  |
| CCC[C@H](O)C[C@@H]1CC[C@H](C)CCCCC(=O)N(C)[C@@H](Cc2ccc(OCCO)cc2)C(=O)O1 [PF1163A] | 11.61 | 10.39 | I (otherwise these were reported as inactive (I)) |  |
| CCCCC[C@@H]1CC[C@H](C)CCCCC(=O)N(C)[C@@H](Cc2ccc(OCCO)cc2)C(=O)O1 [PF1163B] | 17.85 | 14.30 | I (otherwise these were reported as inactive (I)) |  |
| C[C@H]1CCN2C[C@]34C[C@@]5(C(=O)Nc6c5ccc5c6OC=CC(C)(C)O5)C(C)(C)[C@@H]3C[C@]12C(=O)N4C [Paraherquamide E] | 16.63 | 15.01 | I (otherwise these were reported as inactive (I)) |  |
| C[C@@]12CCC[C@@]34CCC[C@@H](C=C[C@H]1CC3)N42 [Porantherine] | 9.49 | 15.78 | I (otherwise these were reported as inactive (I)) |  |
| C[C@@H]1CC[C@H](O)/C=C/C(=O)O[C@H](C)CC[C@H](O)/C=C/C(=O)O1 [Pyrenophorol] | 10.44 | 11.15 | I (otherwise these were reported as inactive (I)) |  |
| C[C@H]1NC(=O)[C@@H]2CCCCN2C(=O)CN(C)C(=O)CNC(=O)[C@@H]2CCCCN2C(=O)[C@H](NC(=O)c2nc3ccccc3cc2O)[C@@H](C)NC(=O)[C@@H]2CCCCN2C(=O)CN(C)C(=O)CNC(=O)[C@@H]2CCCCN2C(=O)[C@@H]1NC(=O)c1nc2ccccc2cc1O [Quinaldopeptin] | 92.82 | 95.37 | I (otherwise these were reported as inactive (I)) |  |
